From patent publication US20250108036A1, “COMPOSITIONS FOR REMOVING SENESCENT CELLS AND USES THEREOF” (LIFECEUTIX CO., LTD., priority 2021, published 2025)
Read-outs that look alike come from different tables or passages of the source.

What was measured:
Assay type in all cases: cell-based, human
[1] = system: foreskin cells in which senescence was induced by doxorubicin; assay: CellTiter-Glo cell viability of doxorubicin-induced senescent foreskin cells (Examples 1-2, 10, 11, 13; Tables 4, 63, 65); details: Homo sapiens, 72 h, read-out: Survival (%); for viability at 30 µM: 30 μM test compound; for viability at […]: […] test compound
Procedure: After 3 days, cell viability was measured using CellTiter-Glo Luminescent Cell Viability Assay (Promega) or light microscopy.

HMGN1 [2] = assay: HMGN1 ELISA in culture medium of foreskin cells (Examples 10, 11; Tables 62, 63, 64); details: Homo sapiens; for activity at 30 µM: read-out: HMGN1
HMGN1 [3] = assay: HMGN1 ELISA in culture medium of A549 cancer cells (Example 12, Table 66); details: Homo sapiens; for activity at 90 µM: test compound 90 μM
A549 = assay: CellTiter-Glo cell viability of senescent A549 cancer cells (Example 12, Table 67); details: Homo sapiens; for viability at 90 µM: 90 μM test compound
[4] = 1.1 μM test compound, doxorubicin-induced senescent foreskin cells, CellTiter-Glo, 0 μM = 100
[5] = 10 μM test compound, doxorubicin-induced senescent foreskin cells, CellTiter-Glo, 0 μM = 100
[6] = doxorubicin-induced senescent foreskin cells, CellTiter-Glo, 0 μM = 100
[7] = 30 μM test compound, doxorubicin-treated foreskin cells, DMSO = 100
[8] = A549, doxorubicin-induced senescent A549 cells, test compound 30 μM, ELISA, DMSO = 100, read-out: HMGN1 (amount of HMGN1 secreted in the cell culture)
[9] = A549, doxorubicin-induced senescent A549 cancer cells, 1.1 μM test compound, CellTiter-Glo, read-out: Survival (%)
[10] = A549, doxorubicin-induced senescent A549 cancer cells, 10 μM test compound, CellTiter-Glo, read-out: Survival (%)
[11] = A549, doxorubicin-induced senescent A549 cancer cells, 30 μM test compound, CellTiter-Glo, read-out: Survival (%)
[12] = A549, doxorubicin-induced senescent A549 cells, ELISA, DMSO = 100, read-out: HMGN1 (amount of HMGN1 secreted in the cell culture)
[13] = A549, doxorubicin-induced senescent A549 cancer cells, CellTiter-Glo, read-out: Survival (%)

| SMILES | viability at 1.1 µM [1, 4] [%] | viability at 10 µM [1, 5] [%] | viability at 30 µM [1, 6] [%] | viability at […] [1, 6] [%] | activity at 30 µM (HMGN1 [2]; [7]) [%] | activity at 30 µM (HMGN1 [3]; [8]) [%] | viability at 1.1 µM (A549; [9]) [%] | viability at 10 µM (A549; [10]) [%] | viability at 30 µM (A549; [11]) [%] | activity at 90 µM (HMGN1 [3]; [12]) [%] | viability at 90 µM (A549; [13]) [%] | viability at 90 µM ([1]; 90 μM test compound, doxorubicin-induced senescent foreskin cells, CellTiter-Glo, 0 μM = 100) [%] | activity at 90 µM (HMGN1 [2]; 90 μM test compound, doxorubicin-treated foreskin cells, DMSO = 100) [%] | viability at 1.1 µM [1] [%] | viability at 10 µM [1] [%] | activity at 30 µM (HMGN1 [2]) [%] | activity at 30 µM (HMGN1 [3]; A549, read-out: HMGN1 (amount of HMGN1 secreted in the cell culture)) [%] | viability at 1.1 µM (A549; A549, read-out: Survival (%)) [%] | viability at 10 µM (A549; A549, read-out: Survival (%)) [%] | viability at 30 µM (A549; A549, read-out: Survival (%)) [%] |
| --- | --- | --- | --- | --- | --- | --- | --- | --- | --- | --- | --- | --- | --- | --- | --- | --- | --- | --- | --- | --- |
| CCc1ccc(C(=O)C(C)CN2CCCC2)cc1 (stereo not drawn) [LX-1405, Inaperisone, reference compound] | 102 | 69.6 | 28.5 | 92.7 | 219 | 187 | 97.1 | 82.8 | 37.4 | – | – | – | – | – | – | – | – | – | – | – |
| CCN(CC)C(=S)SSC(=S)N(CC)CC [LX-1601, Disulfiram, reference compound] | 93.7 | 95.6 | 61.4 | 90 | 154 | – | 114 | 118 | 74.2 | 257 | 3.1 | – | – | – | – | – | – | – | – | – |
| Cc1c(-c2ccc(-c3ccccc3F)cc2)nc2ccc(F)cc2c1C(=O)O [LX-1602, Brequinar, reference compound] | 109 | 57.7 | 36.4 | 93.8 | 228 | 197 | 94.3 | 96.5 | 39.8 | – | – | – | – | – | – | – | – | – | – | – |
| Cc1oncc1C(=O)Nc1ccc(C(F)(F)F)cc1 [LX-1603, Leflunomide, reference compound] | 101 | 91.1 | 84.3 | 95.6 | – | – | 99.6 | 95.7 | 96.5 | 163 | 49.8 | 48.3 | 168 | – | – | – | – | – | – | – |
| Cc1c(O)ccc2c1OCC(c1ccc(O)cc1)C2c1ccc(O)cc1 (stereo not drawn) [LX-1605] | 83.4 | 43.7 | 11.3 | 63.8 | 284 | 338 | 91.7 | 41.8 | 6.4 | – | – | – | – | – | – | – | – | – | – | – |
| CS(=O)(=O)CCNCc1ccc(-c2ccc3ncnc(Nc4ccc(OCc5cccc(F)c5)c(Cl)c4)c3c2)o1 [LX-1607, Lapatinib, reference compound] | 77 | 54.3 | 32.8 | 68 | 238 | 311 | 95.7 | 62.7 | 15.1 | – | – | – | – | – | – | – | – | – | – | – |
| CCOc1cc2ncc(C#N)c(Nc3ccc(OCc4ccccn4)c(Cl)c3)c2cc1NC(=O)/C=C/CN(C)C [LX-1608, Neratinib, reference compound] | – | – | – | – | – | – | – | – | – | – | – | – | – | 45.1 | 3.9 | 296 | 317 | 59.3 | 24.7 | 2.6 |
| CO[C@]1(C(=O)N[C@@H](C)c2ccc(-n3cc(F)cn3)nc2)CC[C@H](c2nc(C)cc(Nc3cc(C)[nH]n3)n2)CC1 [LX-1902, Pralsetinib, reference compound] | 59 | 11.9 | 3.9 | 39.6 | 303 | 271 | 66.2 | 4.2 | – | – | – | – | – | – | – | – | – | – | – | – |
| Cc1c(O)cccc1C(=O)N[C@@H](CSc1ccccc1)[C@H](O)CN1C[C@H]2CCCC[C@H]2C[C@H]1C(=O)NC(C)(C)C [LX-1905, Nelfinavir, reference compound] | 102 | 27.9 | 13.2 | 66.4 | 315 | 201 | 100 | 89.1 | 53.9 | – | – | – | – | – | – | – | – | – | – | – |
| C[C@H]1[C@H](C)CC[C@]2(C(=O)O)CC[C@]3(C)C(=CC[C@@H]4[C@@]5(C)CC[C@H](O)C(C)(C)[C@@H]5CC[C@]43C)[C@H]12 [LX-2001, Ursolic acid] | 75.2 | – | – | 0.8 | 328 | 328 | 98.3 | 5.1 | – | – | – | – | – | – | – | – | – | – | – | – |
